Consider 3 molecules from paper PMC10866925, “Catalyst-free late-stage functionalization to assemble α-acyloxyenamide electrophiles for selectively profiling conserved lysine residues” (Communications Chemistry, 2024).

The target in test [1] is T1, ATP-dependent 6-phosphofructokinase, platelet type (PFKAP) (Homo sapiens, UniProt Q01813).
T1 construct: gene PFKP; full-length
T1 sequence (Q01813 1-784): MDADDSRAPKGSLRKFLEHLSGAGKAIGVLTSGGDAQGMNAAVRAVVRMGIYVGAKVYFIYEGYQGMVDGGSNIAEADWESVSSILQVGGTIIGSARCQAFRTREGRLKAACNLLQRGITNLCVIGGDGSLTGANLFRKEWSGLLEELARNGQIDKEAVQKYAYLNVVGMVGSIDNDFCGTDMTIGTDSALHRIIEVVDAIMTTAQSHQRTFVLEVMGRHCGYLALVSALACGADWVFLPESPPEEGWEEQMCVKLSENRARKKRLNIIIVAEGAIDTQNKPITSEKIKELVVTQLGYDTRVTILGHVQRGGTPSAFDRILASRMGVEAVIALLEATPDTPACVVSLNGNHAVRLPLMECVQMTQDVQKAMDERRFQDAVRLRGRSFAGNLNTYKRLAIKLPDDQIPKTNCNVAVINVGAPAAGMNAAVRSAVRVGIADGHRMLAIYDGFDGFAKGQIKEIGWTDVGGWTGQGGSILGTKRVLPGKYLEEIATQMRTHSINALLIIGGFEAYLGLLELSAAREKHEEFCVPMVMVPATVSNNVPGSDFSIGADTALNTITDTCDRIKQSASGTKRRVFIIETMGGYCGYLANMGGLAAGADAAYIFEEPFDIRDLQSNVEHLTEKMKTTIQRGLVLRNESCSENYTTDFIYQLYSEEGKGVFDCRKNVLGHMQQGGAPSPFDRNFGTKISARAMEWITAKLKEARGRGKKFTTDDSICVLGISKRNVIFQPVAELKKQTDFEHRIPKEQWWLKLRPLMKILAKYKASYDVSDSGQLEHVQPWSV
Description: pull-down/LC-MS and pull-down/WB in cells, K688R mutant and siRNA knockdown. It is filed as cell-based.

A further test addresses EGFR L858R mutant (Homo sapiens, UniProt P00533, L858R). Nature of the test: Z'-LYTE FRET kinase assay, time dependent ([…] at […] min, […] at […] h); also labelling of recombinant protein, LC-MS/MS site mapping, CETSA, competitive pull-down. It is filed as biochemical.
Another test addresses T2, CDK5 (Homo sapiens, UniProt Q00535).
T2 construct: CDK5/p25 (h); with p25
Description: radiometric kinase assay ([…]-ATP, histone H1); also K33R pull-down/WB. It is filed as biochemical.

In another test the target is T3, CDK1 (Homo sapiens, UniProt P06493).
T3 construct: CDK1/cyclinB (h); with cyclin B
Description: radiometric kinase assay ([…]-ATP, histone H1); also MS of K33 modification, K33R pull-down/WB, CETSA. It is filed as biochemical.

The next test addresses T4, CDK2 (Homo sapiens, UniProt P24941).
T4 construct: CDK2/cyclinA (h); with cyclin A
Nature of the test: radiometric kinase assay ([…]-ATP, histone H1); also K33R pull-down/WB. It is filed as biochemical.

pIC50: −log10 of the molar value.

T3 sequence (P06493 whole entry): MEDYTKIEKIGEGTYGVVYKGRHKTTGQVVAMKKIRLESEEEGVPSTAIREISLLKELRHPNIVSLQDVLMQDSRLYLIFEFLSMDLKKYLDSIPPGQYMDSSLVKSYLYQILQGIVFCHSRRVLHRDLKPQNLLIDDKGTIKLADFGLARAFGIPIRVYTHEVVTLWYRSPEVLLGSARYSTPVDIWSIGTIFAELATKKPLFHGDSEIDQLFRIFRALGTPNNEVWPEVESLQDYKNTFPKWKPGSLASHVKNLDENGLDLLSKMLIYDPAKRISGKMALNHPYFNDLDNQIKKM
T3 sequence (P14635 whole entry partner): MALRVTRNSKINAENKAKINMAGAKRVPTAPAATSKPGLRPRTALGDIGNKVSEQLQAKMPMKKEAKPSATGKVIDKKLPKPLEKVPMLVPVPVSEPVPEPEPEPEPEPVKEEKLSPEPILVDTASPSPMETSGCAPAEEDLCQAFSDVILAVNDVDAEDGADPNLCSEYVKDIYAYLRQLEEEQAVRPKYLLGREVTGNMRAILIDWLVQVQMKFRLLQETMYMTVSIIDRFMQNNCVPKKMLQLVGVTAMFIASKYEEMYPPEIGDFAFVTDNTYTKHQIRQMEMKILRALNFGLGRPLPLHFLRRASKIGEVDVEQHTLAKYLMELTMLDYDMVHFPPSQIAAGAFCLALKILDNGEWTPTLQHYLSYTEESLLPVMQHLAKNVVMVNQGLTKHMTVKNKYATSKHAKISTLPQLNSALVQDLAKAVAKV
T2 sequence (Q00535 whole entry): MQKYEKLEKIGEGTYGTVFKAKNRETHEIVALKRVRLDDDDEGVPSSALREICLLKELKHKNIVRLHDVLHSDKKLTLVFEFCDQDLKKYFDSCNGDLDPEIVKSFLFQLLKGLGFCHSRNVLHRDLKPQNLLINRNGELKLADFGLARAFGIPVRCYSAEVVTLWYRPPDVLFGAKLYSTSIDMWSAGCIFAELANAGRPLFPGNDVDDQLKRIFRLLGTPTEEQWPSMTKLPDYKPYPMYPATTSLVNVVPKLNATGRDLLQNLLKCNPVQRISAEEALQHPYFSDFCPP
T2 sequence (Q15078 99-307 partner limits assumed): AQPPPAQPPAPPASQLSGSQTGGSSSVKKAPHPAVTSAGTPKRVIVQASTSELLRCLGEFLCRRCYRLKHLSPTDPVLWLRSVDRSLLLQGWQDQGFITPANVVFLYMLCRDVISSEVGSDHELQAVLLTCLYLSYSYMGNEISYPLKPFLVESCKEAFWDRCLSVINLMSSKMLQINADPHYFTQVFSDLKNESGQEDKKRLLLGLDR
EGFR L858R mutant, sequence (P00533 669-1210 L858R limits assumed): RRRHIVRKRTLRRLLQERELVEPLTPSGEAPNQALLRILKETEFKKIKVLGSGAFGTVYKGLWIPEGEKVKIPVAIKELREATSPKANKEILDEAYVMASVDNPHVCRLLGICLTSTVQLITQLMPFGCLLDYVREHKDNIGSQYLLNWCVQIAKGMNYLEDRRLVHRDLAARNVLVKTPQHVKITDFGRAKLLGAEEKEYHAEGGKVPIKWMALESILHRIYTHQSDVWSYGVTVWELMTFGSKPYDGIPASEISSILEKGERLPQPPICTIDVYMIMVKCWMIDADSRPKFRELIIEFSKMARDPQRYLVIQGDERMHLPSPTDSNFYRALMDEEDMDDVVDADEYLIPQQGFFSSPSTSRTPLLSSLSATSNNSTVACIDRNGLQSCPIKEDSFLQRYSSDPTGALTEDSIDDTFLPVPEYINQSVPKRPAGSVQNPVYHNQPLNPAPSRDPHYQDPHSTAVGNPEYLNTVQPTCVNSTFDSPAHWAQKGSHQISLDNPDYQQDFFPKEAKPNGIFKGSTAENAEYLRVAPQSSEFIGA

Take `C#Cc1ccc(C(=O)OC(=C)N(C)S(=O)(=O)c2ccc(C)cc2)cc1` [A1]: in test [1], the “pull-down/LC-MS and pull-down/WB in cells, K688R mutant and siRNA knockdown” value is on record as “Mutation of PFKAP K688 in the protein binding pocket to K688R severely affects the probe labeling”.

Consider `C#Cc1cccc(Nc2ncnc3cc(OC)c(OCCCCC(=O)OC(=C)N(C)S(=O)(=O)c4ccc(C)cc4)cc23)c1` [E3], for which the negative logarithm of the IC50 (pIC50) on EGFR L858R mutant is 8.89. In the case of `C#CCNC(=O)c1cc(Nc2cc(C3CC3)[nH]n2)nc(N2CCN(C(=O)CCC(=O)OC(=C)N(C)S(=O)(=O)c3ccc(C)cc3)CC2)n1` [X1], the pIC50 against CDK5, on CDK1 and against CDK2 was 5.22 to 5.70 in each case.
